The supplement of paper PMC11061612

Assays:
Experiment in all cases: combination Emax (second highest fraction inhibited in the dose matrix, 72 h); higher = more inhibition; extreme values may be limits of the assay
[1] = test system: ATN-1 (T-Lymphoblastic Leukemia)
Method in brief: (§1)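 After 24 hours at 37°C and 5% CO2 in 1536-well plates, cells in DMEM/F12 or RPMI plus 10% FBS received two-drug dose matrices for 72 hours. Viability came from CellTiter-Glo 2.0 luminescence and was scaled as inhibition, anchored at 0 by vehicle wells and at 1 by blank wells. Combination Emax is taken as the second-highest inhibition in the matrix, and Bliss excess as the observed combination effect less EA + EB − EA·EB, with EA and EB the single-agent effects.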

[2] = test system: CAL-85-1 (Breast Carcinoma)
Method in brief: as §1

[3] = test system: COR-L105 (Lung Adenocarcinoma)
Method in brief: as §1

[4] = test system: Daudi (Burkitt's Lymphoma)
Method in brief: as §1

[5] = test system: GCIY (Gastric Carcinoma)
Method in brief: as §1

[6] = test system: GRANTA-519 (B-Cell Non-Hodgkin's Lymphoma)
Method in brief: as §1

[7] = test system: HT-1197 (Bladder Carcinoma)
Method in brief: as §1

[8] = test system: HT-3 (Cervical Carcinoma)
Method in brief: as §1

[9] = test system: MRK-nu-1 (Breast Carcinoma)
Method in brief: as §1

[10] = test system: NCI-H1648 (Lung Adenocarcinoma)
Method in brief: as §1

[11] = test system: NCI-H1944 (Lung Adenocarcinoma)
Method in brief: as §1

[12] = test system: NCI-H1975 (Lung Adenocarcinoma)
Method in brief: as §1

[13] = test system: NTERA-2-cl-D1 (Other Solid Carcinomas)
Method in brief: as §1

[14] = test system: OVKATE (Ovarian Carcinoma)
Method in brief: as §1

[15] = test system: SBC-5 (Small Cell Lung Carcinoma)
Method in brief: as §1

[16] = test system: SK-MEL-24 (Melanoma)
Method in brief: as §1

[17] = test system: SK-N-DZ (Neuroblastoma)
Method in brief: as §1

[18] = test system: SUP-HD1 (Hodgkin's Lymphoma)
Method in brief: as §1

[19] = test system: SW1463 (Colorectal Carcinoma)
Method in brief: as §1

[20] = test system: TOV-21G (Ovarian Carcinoma)
Method in brief: as §1

## COc1cc2ncnc(Nc3ccc(F)c(Cl)c3)c2cc1OCCCN1CCOCC1 [Gefitinib] + CC(C)n1c(=O)n(C)c2cnc3cc(F)c(-c4ccc(OCCCN5CCCCC5)nc4)cc3c21 [AZD1390] (first compound max 10 µM, 7x7, partner max 0.3 µM)
[1]
  combination Emax: 0.296
[2]
  combination Emax: 0.466
[3]
  combination Emax: 0.619
[4]
  combination Emax: 0.392
[5]
  combination Emax: 0.459
[6]
  combination Emax: 0.201
[7]
  combination Emax: 0.0774
[8]
  combination Emax: 0.0187
[9]
  combination Emax: 0.443
[10]
  combination Emax: 0.646
[11]
  combination Emax: 0.19
[12]
  combination Emax: 0.419
[13]
  combination Emax: 0.284
[14]
  combination Emax: 0.155
[15]
  combination Emax: 0.0706
[16]
  combination Emax: 0.246
[17]
  combination Emax: 0.19
[18]
  combination Emax: 0.382
[19]
  combination Emax: 0.728
[20]
  combination Emax: 0.275

## Cc1cc2ncnn2cc1Nc1ncc2c(n1)n(C1CCOCC1)c(=O)n2C [AZD7648] + O=C(c1cc(Cc2n[nH]c(=O)c3ccccc23)ccc1F)N1CCN(C(=O)C2CC2)CC1 [Olaparib] (first compound max 10 µM, 7x7, partner max 10 µM)
[1]
  combination Emax: 0.356
[2]
  combination Emax: 0.337
[3]
  combination Emax: 0.222
[4]
  combination Emax: 0.446
[5]
  combination Emax: 0.342
[6]
  combination Emax: 0.251
[7]
  combination Emax: 0.216
[8]
  combination Emax: 0.0499
[9]
  combination Emax: 0.387
[10]
  combination Emax: 0.328
[11]
  combination Emax: 0.246
[12]
  combination Emax: 0.389
[13]
  combination Emax: 0.534
[14]
  combination Emax: 0.148
[15]
  combination Emax: 0.218
[16]
  combination Emax: 0.211
[17]
  combination Emax: 0.278
[18]
  combination Emax: 0.465
[19]
  combination Emax: 0.0764
[20]
  combination Emax: 0.16

## CN(CCO)CC[C@H](CSc1ccccc1)Nc1ccc(S(=O)(=O)NC(=O)c2ccc(N3CCC([C@@H](O)c4ccccc4-c4ccc(Cl)cc4)CC3)cc2)cc1S(=O)(=O)C(F)(F)F [AZD4320] + CCN(CCO)CCCOc1ccc2c(Nc3cc(CC(=O)Nc4cccc(F)c4)[nH]n3)ncnc2c1 [AZD2811] (first compound max 1 µM, 7x7, partner max 1 µM)
[1]
  combination Emax: 0.939
[2]
  combination Emax: 0.397
[3]
  combination Emax: 0.215
[4]
  combination Emax: 0.351
[5]
  combination Emax: 0.554
[6]
  combination Emax: 0.993
[7]
  combination Emax: 0.241
[8]
  combination Emax: 0.177
[9]
  combination Emax: 0.863
[10]
  combination Emax: 0.571
[11]
  combination Emax: 0.584
[12]
  combination Emax: 0.411
[13]
  combination Emax: 0.921
[14]
  combination Emax: 0.347
[15]
  combination Emax: 0.3
[16]
  combination Emax: 0.226
[17]
  combination Emax: 0.787
[18]
  combination Emax: 0.966
[19]
  combination Emax: 0.204
[20]
  combination Emax: 0.476

## C[C@@H](c1ccc2nccn2c1)n1nnc2ncc(-c3cnn(C)c3)nc21 [Savolitinib] + Cc1c2c(nn1C)CSCc1cc(n(C)n1)CSc1cc(c3ccccc3c1)OCCCc1c(C(=O)O)n(C)c3c-2c(Cl)ccc13 [AZD5991] (first compound max 1 µM, 7x7, partner max 1 µM)
[1]
  combination Emax: 0.904
[2]
  combination Emax: 0.0993
[3]
  combination Emax: 0.165
[4]
  combination Emax: 0.196
[5]
  combination Emax: 0.176
[6]
  combination Emax: 0.141
[7]
  combination Emax: 0.195
[8]
  combination Emax: 0.207
[9]
  combination Emax: 1
[10]
  combination Emax: 0.453
[11]
  combination Emax: 0.184
[12]
  combination Emax: 0.146
[13]
  combination Emax: 0.422
[14]
  combination Emax: 0.144
[15]
  combination Emax: 0.538
[16]
  combination Emax: 0.225
[17]
  combination Emax: 0.255
[18]
  combination Emax: 0.62
[19]
  combination Emax: 0.255
[20]
  combination Emax: 0.174

## Cc1cc2ncnn2cc1Nc1ncc2c(n1)n(C1CCOCC1)c(=O)n2C [AZD7648] + C=CCn1c(=O)c2cnc(Nc3ccc(N4CCN(C)CC4)cc3)nc2n1-c1cccc(C(C)(C)O)n1 [AZD1775] (first compound max 10 µM, partner max 1 µM)
[1]
  combination Emax: 1
[2]
  combination Emax: 0.452
[3]
  combination Emax: 0.492
[4]
  combination Emax: 0.809
[5]
  combination Emax: 0.49
[6]
  combination Emax: 0.8
[7]
  combination Emax: 0.521
[8]
  combination Emax: 0.401
[9]
  combination Emax: 0.596
[10]
  combination Emax: 0.774
[11]
  combination Emax: 0.583
[12]
  combination Emax: 0.421
[13]
  combination Emax: 0.476
[14]
  combination Emax: 0.422
[15]
  combination Emax: 0.359
[16]
  combination Emax: 0.495
[17]
  combination Emax: 0.927
[18]
  combination Emax: 0.785
[19]
  combination Emax: 0.411
[20]
  combination Emax: 0.56

## COc1cc2c(cc1OCCCCCOc1cc3c(cc1OC)C(=O)N1C=C(C)C[C@H]1C=N3)N=C[C@@H]1CC(C)=CN1C2=O [SG3199] + O=C(c1cc(Cc2n[nH]c(=O)c3ccccc23)ccc1F)N1CCN(C(=O)C2CC2)CC1 [Olaparib] (first compound max 0.001 µM, 7x7, partner max 10 µM)
[1]
  combination Emax: 0.0857
[2]
  combination Emax: 0.188
[3]
  combination Emax: 0.0843
[4]
  combination Emax: 0.245
[5]
  combination Emax: 0.258
[6]
  combination Emax: 0.324
[7]
  combination Emax: 0.166
[8]
  combination Emax: 0.0808
[9]
  combination Emax: 0.223
[10]
  combination Emax: 0.129
[11]
  combination Emax: 0.192
[12]
  combination Emax: 0.172
[13]
  combination Emax: 0.457
[14]
  combination Emax: 0.0519
[15]
  combination Emax: 0.0814
[16]
  combination Emax: 0.129
[17]
  combination Emax: 0.358
[18]
  combination Emax: 0.456
[19]
  combination Emax: 0.0306
[20]
  combination Emax: 0.195

## Cc1nc(Nc2ncc(C(=O)Nc3c(C)cccc3Cl)s2)cc(N2CCN(CCO)CC2)n1 [Dasatinib] + CC(=O)Nc1cccc(-n2c(=O)n(C3CC3)c(=O)c3c(Nc4ccc(I)cc4F)n(C)c(=O)c(C)c32)c1 [Trametinib] (first compound max 2 µM, 7x7, partner max 1 µM)
[1]
  combination Emax: 0.591
[2]
  combination Emax: 0.853
[3]
  combination Emax: 0.806
[4]
  combination Emax: 0.635
[5]
  combination Emax: 0.83
[6]
  combination Emax: 0.205
[7]
  combination Emax: 0.554
[8]
  combination Emax: 0.157
[9]
  combination Emax: 0.254
[10]
  combination Emax: 0.876
[11]
  combination Emax: 0.65
[12]
  combination Emax: 0.662
[13]
  combination Emax: 0.504
[14]
  combination Emax: 0.484
[15]
  combination Emax: 0.409
[16]
  combination Emax: 0.815
[17]
  combination Emax: 0.192
[18]
  combination Emax: 0.202
[19]
  combination Emax: 0.786
[20]
  combination Emax: 0.8

## Cc1cc2ncnn2cc1Nc1ncc2c(n1)n(C1CCOCC1)c(=O)n2C [AZD7648] + C[C@@H]1COCCN1C2=NC(=NC(=C2)C3(CC3)[S@](=N)(=O)C)C4=C5C=CNC5=NC=C4 [AZD6738] (first compound max 10 µM, 7x7, partner max 10 µM)
[1]
  combination Emax: 0.995
[2]
  combination Emax: 0.594
[3]
  combination Emax: 0.531
[4]
  combination Emax: 0.826
[5]
  combination Emax: 0.774
[6]
  combination Emax: 0.808
[7]
  combination Emax: 0.419
[8]
  combination Emax: 0.536
[9]
  combination Emax: 0.633
[10]
  combination Emax: 0.779
[11]
  combination Emax: 0.77
[12]
  combination Emax: 0.423
[13]
  combination Emax: 0.617
[14]
  combination Emax: 0.377
[15]
  combination Emax: 0.481
[16]
  combination Emax: 0.509
[17]
  combination Emax: 0.949
[18]
  combination Emax: 0.751
[19]
  combination Emax: 0.543
[20]
  combination Emax: 0.579

## Cc1cc2ncnn2cc1Nc1ncc2c(n1)n(C1CCOCC1)c(=O)n2C [AZD7648] + CCN(CCO)CCCOc1ccc2c(Nc3cc(CC(=O)Nc4cccc(F)c4)[nH]n3)ncnc2c1 [AZD2811] (first compound max 10 µM, 7x7, partner max 1 µM)
[1]
  combination Emax: 0.832
[2]
  combination Emax: 0.31
[3]
  combination Emax: 0.31
[4]
  combination Emax: 0.508
[5]
  combination Emax: 0.49
[6]
  combination Emax: 0.414
[7]
  combination Emax: 0.291
[8]
  combination Emax: 0.231
[9]
  combination Emax: 0.824
[10]
  combination Emax: 0.547
[11]
  combination Emax: 0.415
[12]
  combination Emax: 0.384
[13]
  combination Emax: 0.554
[14]
  combination Emax: 0.27
[15]
  combination Emax: 0.39
[16]
  combination Emax: 0.373
[17]
  combination Emax: 0.635
[18]
  combination Emax: 0.434
[19]
  combination Emax: 0.27
[20]
  combination Emax: 0.327

## C[C@@H](c1ccc2nccn2c1)n1nnc2ncc(-c3cnn(C)c3)nc21 [Savolitinib] + CC1(C)CCC(CN2CCN(c3ccc(C(=O)NS(=O)(=O)c4ccc(NCC5CCOCC5)c([N+](=O)[O-])c4)c(Oc4cnc5[nH]ccc5c4)c3)CC2)=C(c2ccc(Cl)cc2)C1 [Venetoclax] (first compound max 1 µM, 7x7, partner max 1 µM)
[1]
  combination Emax: 0.186
[2]
  combination Emax: 0.146
[3]
  combination Emax: 0.186
[4]
  combination Emax: 0.109
[5]
  combination Emax: 0.213
[6]
  combination Emax: 0.306
[7]
  combination Emax: 0.173
[8]
  combination Emax: 0.137
[9]
  combination Emax: 0.449
[10]
  combination Emax: 0.153
[11]
  combination Emax: 0.128
[12]
  combination Emax: 0.126
[13]
  combination Emax: 0.257
[14]
  combination Emax: 0.155
[15]
  combination Emax: 0.33
[16]
  combination Emax: 0.154
[17]
  combination Emax: 0.173
[18]
  combination Emax: 0.792
[19]
  combination Emax: 0.247
[20]
  combination Emax: 0.116

## Cc1cc2ncnn2cc1Nc1ncc2c(n1)n(C1CCOCC1)c(=O)n2C [AZD7648] + CN(C)CCCOc1ccc(-c2ccc3ncc4c(c3c2)n(C2CCOCC2)c(=O)n4C)cn1 [AZD0156] (first compound max 10 µM, 7x7, partner max 1 µM)
[1]
  combination Emax: 0.481
[2]
  combination Emax: 0.371
[3]
  combination Emax: 0.339
[4]
  combination Emax: 0.444
[5]
  combination Emax: 0.437
[6]
  combination Emax: 0.249
[7]
  combination Emax: 0.194
[8]
  combination Emax: 0.143
[9]
  combination Emax: 0.515
[10]
  combination Emax: 0.508
[11]
  combination Emax: 0.29
[12]
  combination Emax: 0.398
[13]
  combination Emax: 0.484
[14]
  combination Emax: 0.35
[15]
  combination Emax: 0.224
[16]
  combination Emax: 0.28
[17]
  combination Emax: 0.31
[18]
  combination Emax: 0.199
[19]
  combination Emax: 0.159
[20]
  combination Emax: 0.169
